PubChem BioAssay AID1259407 (Chemical Carcinogenesis Research Information System (CCRIS), 2018)
The source made the active and inactive calls. No rule for the calls is given here.

Test system: CCRIS mutagenicity, Ames/micronucleus/aberration tests
Test: CCRIS mutagenicity studies
[1] = Test System: AMES SALMONELLA TYPHIMURIUM, Strain/Indicator: TA97, Metabolic Activation: HAMSTER, LIVER, S-9, AROCLOR 1254 (10 OR 30%), Method: PREINCUBATION
[2] = Test System: AMES SALMONELLA TYPHIMURIUM, Strain/Indicator: TA97, Metabolic Activation: NONE, Method: PREINCUBATION
[3] = Test System: AMES SALMONELLA TYPHIMURIUM, Strain/Indicator: TA97, Metabolic Activation: RAT, LIVER, S-9, AROCLOR 1254 (10 OR 30%), Method: PREINCUBATION
[4] = Test System: AMES SALMONELLA TYPHIMURIUM, Strain/Indicator: TA98, Metabolic Activation: HAMSTER, LIVER, S-9, AROCLOR 1254 (10 OR 30%), Method: PREINCUBATION
[5] = Test System: AMES SALMONELLA TYPHIMURIUM, Strain/Indicator: TA98, Metabolic Activation: NONE, Method: PREINCUBATION
[6] = Test System: AMES SALMONELLA TYPHIMURIUM, Strain/Indicator: TA98, Metabolic Activation: RAT, LIVER, S-9, AROCLOR 1254 (10 OR 30%), Method: PREINCUBATION
[7] = Test System: AMES SALMONELLA TYPHIMURIUM, Strain/Indicator: TA100, Metabolic Activation: HAMSTER, LIVER, S-9, AROCLOR 1254 (10 OR 30%), Method: PREINCUBATION
[8] = Test System: AMES SALMONELLA TYPHIMURIUM, Strain/Indicator: TA100, Metabolic Activation: NONE, Method: PREINCUBATION
[9] = Test System: AMES SALMONELLA TYPHIMURIUM, Strain/Indicator: TA100, Metabolic Activation: RAT, LIVER, S-9, AROCLOR 1254 (10 OR 30%), Method: PREINCUBATION
[10] = Test System: AMES SALMONELLA TYPHIMURIUM, Strain/Indicator: TA1535, Metabolic Activation: HAMSTER, LIVER, S-9, AROCLOR 1254 (10 OR 30%), Method: PREINCUBATION
[11] = Test System: AMES SALMONELLA TYPHIMURIUM, Strain/Indicator: TA1535, Metabolic Activation: NONE, Method: PREINCUBATION
[12] = Test System: AMES SALMONELLA TYPHIMURIUM, Strain/Indicator: TA1535, Metabolic Activation: RAT, LIVER, S-9, AROCLOR 1254 (10 OR 30%), Method: PREINCUBATION
[13] = Test System: AMES SALMONELLA TYPHIMURIUM, Strain/Indicator: TA100, Metabolic Activation: RAT, LIVER, S-9, AROCLOR 1254, Method: PREINCUBATION
[14] = Test System: AMES SALMONELLA TYPHIMURIUM, Strain/Indicator: TA100, Metabolic Activation: NONE, Method: STANDARD PLATE
[15] = Test System: AMES SALMONELLA TYPHIMURIUM, Strain/Indicator: TA98, Metabolic Activation: NONE, Method: STANDARD PLATE
[16] = Test System: AMES SALMONELLA TYPHIMURIUM, Strain/Indicator: TA98, Metabolic Activation: S-9, Method: STANDARD PLATE
[17] = Test System: AMES SALMONELLA TYPHIMURIUM, Strain/Indicator: TA100, Metabolic Activation: S-9, Method: STANDARD PLATE

With `O=S(=O)(O)c1ccccc1` the mutagenic call [1] was “inactive; negative”, the mutagenic call [2] was “inactive; negative” and the mutagenic call [3] was “inactive; negative”. For the same compound, the mutagenic call [4] was “inactive; negative”, the mutagenic call [5] was “inactive; negative” and the mutagenic call [6] was “inactive; negative”. For the same compound, the mutagenic call [7] was “inactive; negative”, the mutagenic call [8] was “inactive; negative” and the mutagenic call [9] was “inactive; negative”. For the same compound, the mutagenic call [10] was “inactive; negative”, the mutagenic call [11] was “inactive; negative” and the mutagenic call [12] was “inactive; negative”.

In the case of `CCC(=O)OCc1cccc([N+](=O)[O-])c1`, the mutagenic call [5] is reported as “inactive; negative”, the mutagenic call [8] is reported as “inactive; negative” and the mutagenic call [13] is reported as “inactive; negative”.

With `C[C@@H](Br)C(=O)NCc1ccccc1` the mutagenic call [14] was “active; positive”.

`CC(=O)/C=C/c1ccco1` was tested, and the mutagenic call (Test System: AMES SALMONELLA TYPHIMURIUM, Strain/Indicator: TA98, Metabolic Activation: HAMSTER, LIVER, S-9, AROCLOR 1254 (10%), Method: PREINCUBATION) was “inactive; negative”, the mutagenic call [5] was “inactive; negative” and the mutagenic call (Test System: AMES SALMONELLA TYPHIMURIUM, Strain/Indicator: TA98, Metabolic Activation: RAT, LIVER, S-9, AROCLOR 1254 (10%), Method: PREINCUBATION) was “inactive; negative”. The mutagenic call (Test System: AMES SALMONELLA TYPHIMURIUM, Strain/Indicator: TA100, Metabolic Activation: HAMSTER, LIVER, S-9, AROCLOR 1254 (10%), Method: PREINCUBATION) was “inactive; negative”, the mutagenic call [8] was “inactive; negative” and the mutagenic call (Test System: AMES SALMONELLA TYPHIMURIUM, Strain/Indicator: TA100, Metabolic Activation: RAT, LIVER, S-9, AROCLOR 1254 (10%), Method: PREINCUBATION) was “inactive; negative”. The mutagenic call (Test System: AMES SALMONELLA TYPHIMURIUM, Strain/Indicator: TA1535, Metabolic Activation: HAMSTER, LIVER, S-9, AROCLOR 1254 (10%), Method: PREINCUBATION) was “inactive; negative”, the mutagenic call [11] was “inactive; negative” and the mutagenic call (Test System: AMES SALMONELLA TYPHIMURIUM, Strain/Indicator: TA1535, Metabolic Activation: RAT, LIVER, S-9, AROCLOR 1254 (10%), Method: PREINCUBATION) was “inactive; negative”. The mutagenic call (Test System: AMES SALMONELLA TYPHIMURIUM, Strain/Indicator: TA1537, Metabolic Activation: HAMSTER, LIVER, S-9, AROCLOR 1254 (10%), Method: PREINCUBATION) was “inactive; negative”, the mutagenic call (Test System: AMES SALMONELLA TYPHIMURIUM, Strain/Indicator: TA1537, Metabolic Activation: NONE, Method: PREINCUBATION) was “inactive; negative” and the mutagenic call (Test System: AMES SALMONELLA TYPHIMURIUM, Strain/Indicator: TA1537, Metabolic Activation: RAT, LIVER, S-9, AROCLOR 1254 (10%), Method: PREINCUBATION) was “inactive; negative”.

For `O=[N+]([O-])c1ccc2c(c1)-c1ccc([N+](=O)[O-])c3cccc-2c13`, the mutagenic call (Test System: AMES SALMONELLA TYPHIMURIUM, Strain/Indicator: TA97, Metabolic Activation: NONE) was “active; positive”, the mutagenic call (Test System: AMES SALMONELLA TYPHIMURIUM, Strain/Indicator: TA98(1,8-DNP6), Metabolic Activation: NONE) was “active; positive” and the mutagenic call (Test System: AMES SALMONELLA TYPHIMURIUM, Strain/Indicator: TA98(NR), Metabolic Activation: NONE) was “active; positive”. The mutagenic call (Test System: AMES SALMONELLA TYPHIMURIUM, Strain/Indicator: TA98, Metabolic Activation: NONE) was “active; positive”, the mutagenic call (Test System: AMES SALMONELLA TYPHIMURIUM, Strain/Indicator: TA100, Metabolic Activation: NONE) was “active; positive” and the mutagenic call (Test System: AMES SALMONELLA TYPHIMURIUM, Strain/Indicator: TA1535, Metabolic Activation: NONE) was “inactive; negative”. The mutagenic call (Test System: AMES SALMONELLA TYPHIMURIUM, Strain/Indicator: TA1537, Metabolic Activation: NONE) was “active; positive”, the mutagenic call (Test System: AMES SALMONELLA TYPHIMURIUM, Strain/Indicator: TA1538, Metabolic Activation: NONE) was “active; positive” and the mutagenic call (Test System: AMES SALMONELLA TYPHIMURIUM, Strain/Indicator: TA1978, Metabolic Activation: NONE) was “active; positive”.

For `CNC(=O)c1ccccc1`, the mutagenic call [1] was “inactive; negative”, the mutagenic call [2] was “inactive; negative” and the mutagenic call [3] was “inactive; negative”. For the same compound, the mutagenic call [4] was “inactive; negative”, the mutagenic call [5] was “inactive; negative” and the mutagenic call [6] was “inactive; negative”. For the same compound, the mutagenic call [7] was “inactive; negative”, the mutagenic call [8] was “inactive; negative” and the mutagenic call [9] was “inactive; negative”. The mutagenic call [10] was “inactive; negative”, the mutagenic call [11] was “inactive; negative” and the mutagenic call [12] was “inactive; negative”.

In the case of `CN(C(=O)CCl)c1snc2ccccc12`, the mutagenic call [15] is reported as “inactive; negative”, the mutagenic call [16] is reported as “inactive; negative” and the mutagenic call [14] is reported as “inactive; negative”. The mutagenic call [17] was “inactive; negative”, the mutagenic call (Test System: AMES SALMONELLA TYPHIMURIUM, Strain/Indicator: TA1535, Metabolic Activation: NONE, Method: STANDARD PLATE) was “inactive; negative” and the mutagenic call (Test System: AMES SALMONELLA TYPHIMURIUM, Strain/Indicator: TA1535, Metabolic Activation: S-9, Method: STANDARD PLATE) was “inactive; negative”. The mutagenic call (Test System: AMES SALMONELLA TYPHIMURIUM, Strain/Indicator: TA1537, Metabolic Activation: NONE, Method: STANDARD PLATE) was “inactive; negative” and the mutagenic call (Test System: AMES SALMONELLA TYPHIMURIUM, Strain/Indicator: TA1537, Metabolic Activation: S-9, Method: STANDARD PLATE) was “inactive; negative”.

In the case of `N#Cc1cccc(/C=C\c2ccc([N+](=O)[O-])cc2)c1`, the mutagenic call (Test System: AMES SALMONELLA TYPHIMURIUM, Strain/Indicator: TA98(NR), Metabolic Activation: NONE, Method: STANDARD PLATE) is reported as “active; positive”, the mutagenic call (Test System: AMES SALMONELLA TYPHIMURIUM, Strain/Indicator: TA98 (NR), Metabolic Activation: S-9, Method: STANDARD PLATE) is reported as “active; positive” and the mutagenic call [15] is reported as “active; positive”. For the same compound, the mutagenic call [16] was “active; positive”, the mutagenic call (Test System: AMES SALMONELLA TYPHIMURIUM, Strain/Indicator: TA100 (NR), Metabolic Activation: NONE, Method: STANDARD PLATE) was “inactive; negative” and the mutagenic call (Test System: AMES SALMONELLA TYPHIMURIUM, Strain/Indicator: TA100 (NR), Metabolic Activation: S-9, Method: STANDARD PLATE) was “inactive; negative”. The mutagenic call [14] was “active; positive” and the mutagenic call [17] was “active; positive”.

`CCN(CC)C(=S)SSC[C@H](NC(=O)CC[C@H](N)C(=O)O)C(=O)NCC(=O)O` was tested, and the mutagenic call [5] was “inactive; negative”, the mutagenic call (Test System: AMES SALMONELLA TYPHIMURIUM, Strain/Indicator: TA98, Metabolic Activation: RAT, LIVER, S-9, AROCLOR 1254, Method: PREINCUBATION) was “inactive; negative” and the mutagenic call [8] was “inactive; negative”. For the same compound, the mutagenic call [13] was “inactive; negative”.

For `[CH3][Sn]([CH3])([CH3])[Cl]`, the mutagenic call (Test System: AMES SALMONELLA TYPHIMURIUM, Strain/Indicator: TA98, Metabolic Activation: NONE, Method: SUSPENSION/PLATE) was “inactive; negative” and the mutagenic call (Test System: AMES SALMONELLA TYPHIMURIUM, Strain/Indicator: TA100, Metabolic Activation: NONE, Method: SUSPENSION/PLATE) was “inactive; negative”.

For `Cc1ccc2cc3c(c4c2c1CC4)C1OC1c1ccccc1-3` (centres undefined), the mutagenic call [15] was “active; positive”, the mutagenic call [14] was “active; positive” and the mutagenic call (Test System: CHINESE HAMSTER V-79, Strain/Indicator: V-79/8-AZAGUANINE, Metabolic Activation: NONE, Method: STANDARD PLATE) was “active; positive”.
